From a melting point compilation (Tetko et al.; mined from patent text by program, amines drawn as free bases though some values may be those of a salt)

| SMILES | melting point |
| --- | --- |
| CC(C)(C)OC(=O)N1CCc2ccc3ccn(CCOc4ccccc4F)c3c2CC1 | 132 to 134 °C |
| Cn1ncc(Cl)c(NCCCCl)c1=O | 42 to 46 °C |
| CCN(CC)CCCNC(=O)Cn1ncc(-c2ccc(NS(C)(=O)=O)cc2)c1-c1ccccc1 | 179 to 180 °C |
| COc1ccccc1C(=O)NC1CCCn2c1nc(-c1ccncc1)cc2=O (racemic) | 155 to 157 °C |
| CCCCOc1cc(CCC(=O)O)ccc1-c1cccc(CN(C)C(=O)c2ccccc2)c1 | 103 to 105 °C |
| Cc1cc(SCc2ccc(-c3ccc(C(F)(F)F)cc3)cc2)c2c(c1OCC(=O)O)CCC2 | 177 °C |
| COc1cc2sc(C(=O)Cl)c(Cl)c2cc1OC | 191 to 199 °C |
| CC1COC(Cn2nc[nH]c2=S)(c2ccc(Oc3ccc(Cl)cc3)cc2Cl)O1 (centres undefined) | 130 °C |
| CNC(=O)c1cc(C(=O)O)cc(C(=O)NC)n1 | < 300 °C |
| CNc1cc2c(cn1)c(=O)n1nccc1n2C | > 300 °C |
| CCC(CC)C(NC(=O)c1ccc(Cl)cc1)Nc1c(Nc2cccnc2)c(=O)c1=O (centres undefined) | 232 to 233 °C |
| CCOCc1nc2c(N)nc3cc(Br)cnc3c2n1CC1(O)CCCC1 | 166 to 168 °C |
| CC(=O)NC[C@H]1CN(c2ccc3c(c2)CCS(=O)(=O)C3)C(=O)O1 | 177 to 178 °C |
| O=c1[nH]c2c(Cl)sc(Cl)c2c(=O)c2cscc12 | 236 to 239 °C |
| COC(=O)Nc1c(Cl)ccc(C)c1F | 109 to 112 °C |
| CCN(CC)c1cc(F)cc2nc3n(c12)CCCN3c1ccc(Cl)cc1Cl | 142 to 145 °C |
| N#Cc1cc(C(F)(F)F)ccc1Oc1cccc(C(=O)O)c1 | 224 to 226 °C |
| Cc1cc(C)n(C(=N)NC(=S)Nc2cccnc2)n1 | 132 °C |
| COc1ccc2c(c1)N(c1cccc(Cl)c1)C(=O)C2(C)NC(=O)OCc1ccccc1 (centres undefined) | 143 to 144 °C |
| NCCNC(=O)c1cc2c(Oc3ccc(Cl)cc3)cncc2s1 | 111 to 114 °C |

| SMILES | melting point |
| --- | --- |
| C[C@@H](NC(=O)c1ccc(-c2cc(C(F)(F)F)nn2C)s1)[C@](O)(Cn1cncn1)c1ccc(F)cc1F | 106 to 110 °C |
| O=C(Nc1ccc(Oc2ccnc(NCCN3CCCC3)n2)c2ccccc12)c1cc(F)cc(N2CCOCC2)c1 | 95 to 97 °C |
| C[C@@H](CNC(=O)OC(C)(C)C)c1ccc(O)c(O)c1 | 116 to 118 °C |
| CC(=O)OCCC(=O)C1CCC2C3CCC4CC(O)CCC4(C)C3C(=O)CC12C (centres undefined) | 113 to 115 °C |
| Cc1ccc(S(=O)(=O)NCCc2ccc(O)cc2)cc1 | 169 to 172 °C |
| CCNC(=O)c1ccc2ncc(C3CCN(C)CC3)c-2[nH]1 | 117 to 120 °C |
| COc1ccc2[nH]c3cc(N)c4c(c3c2c1)C(=O)NC4=O | 342 to 345 °C |
| O=C1CC(c2ccccc2)N(C(=O)Cl)N1 (centres undefined) | 146 °C |
| CC(C)(C)C(=O)Nc1cccc(-c2ccc(C3CCNC3=O)cc2F)n1 (centres undefined) | 162 to 165 °C |
| COc1ccc(C2CCCN(C(=O)C(F)(F)F)C2)cc1 (centres undefined) | 88 °C |
| Oc1ccc(CCc2cccc(O)c2)cc1 | 108 °C |
| COc1ccc(Cn2c(=O)c3cc(Cl)ccc3n(CCCCBr)c2=O)cc1 | 146 to 147 °C |
| Cc1c(N)cccc1C1=NC(C)(C)CO1 | 45 °C |
| COC(=O)c1c(Cc2ccc(C(=O)N(C)C)nc2)c(=O)c2ccc(C)nc2n1-c1ccccc1 | 235 to 236 °C |
| Cc1nnc2n1-c1ccccc1C(c1ccc(Cl)cc1)=NC2NC(=O)Nc1ccccn1 (centres undefined) | 274 to 278 °C |
| O=C(O)CCCCNCc1cc2cc3c(cc2c2cc(OCc4ccccc4)ccc12)OCO3 | 197 to 199 °C |
| COC(=O)c1cc2cc(NS(=O)(=O)c3cccc(Cl)c3C)ccc2o1 | 139 to 140 °C |
| CSCCC(NC(=O)c1ccc(COc2cccnc2)cc1Oc1ccccc1)C(=O)O (centres undefined) | 195 °C |
| CCCC(c1ccc(C(=O)O)cc1)[Si]1(C)O[Si](C)(C)O[Si](C)(C)O[Si](C)(C)O1 (centres undefined) | 72 to 78 °C |
